Source: patent US20230138752A1, “PLASTICIZERS TO IMPROVE RELEASE PERFORMANCE OF AMORPHOUS SOLID DISPERSIONS” (Purdue Research Foundation, priority 2021, published 2023)
Entries after “also recorded” stand apart in the source; their conditions may differ. Counter-ions that a name gives are not always drawn. Like-named read-outs stand apart in the source and are kept apart here.

Assays:
[1] = API:plasticizer 8:1 miscibility and Tg depression by DSC; type: physicochemical
Protocol: API:plasticizer at a ratio 8:1 was prepared by rotary evaporation to evaluate miscibility and Tg depression produced by the plasticizer. 3 to 5 mg was accurately weighed in an aluminum pan with a hermetic lid with a pinhole. Since the Tg was evaluated after only 1 hour of vacuum drying to avoid crystallization, a second drying was done by employing an isothermal hold at 20° C. in the DSC with nitrogen flow for at least 20 minutes. Then, the sample was cooled to −60 and heated at 2° C./min to 210° C. with a modulation period +/−1° C. every 60 seconds.

[2] = literature; cited from earlier work
[3] = Surface normalized dissolution of ASD tablets (release, limit of congruency); type: physicochemical; conditions: for limit of congruency (LoC) of ATZ-PVPVA ASDs: ASD containing 5% w/w of the plasticizer; for normalized release rate of drug and polymer versus neat PVPVA / increase in LoC of ATZ versus binary ASD: ATZ-PVPVA ASD; for normalized release rate of drug and polymer versus neat PVPVA: ATZ 10 DL+GTA, ATZ 25DL+GTB; for limit of congruency (LoC) of LED-PVPVA ASDs: ASD containing 10% w/w of the plasticizer; for release of LED / total release of LED: LED 10% DL; for increase in LoC of LED versus binary ASD: LED-PVPVA ASD; for dissolution rate of PVPVA containing plasticizer versus neat PVPVA: PVPVA with 10% w/w plasticizer, no drug; for lag time in the release profile: ATZ-PVPVA ASD at the LoC (20% DL TEC, 25% DL TEAC and TBAC)
Protocol: All dissolution experiments were conducted in 50 mM phosphate buffer pH 6.8 prepared by dissolving 3.52 g of sodium phosphate monobasic monohydrate and 3.48 g of sodium phosphate dibasic anhydrous to 1L with Milli-Q water. The pH was adjusted to pH 6.8 if needed using HCl or NaOH.
Surface normalized dissolution was employed to evaluate the release performance of the ASDs and to calculate the normalized release rate. A Hanson Vision G2 dissolution tester with a Vision heater (Teledyne Hanson Chatsworth, CA) was utilized. A tablet was prepared immediately prior to the dissolution test by compressing 100 mg of ASD in an 8 mm die at 2 500 psi for 60 seconds yielding a tablet surface are of 50 mm^2. The temperature was maintained at 37° C., the rotation speed was 100 rpm, and the dissolution medium was 50 mM phosphate buffer pH 6.8 degassed and pre-equilibrated at 37° C. 100 to 200 μl of sample was withdrawn every 5 min for the initial 20 minutes, then every 10 minutes until 60 minutes and finally at 75, 90 and 120 minutes. The medium was replenished after each sample withdrawal to maintain a constant volume.
The concentration of API and polymer during the dissolution was assessed by high performance liquid chromatography (HPLC) using an Agilent 1100 system (Agilent Technologies, Santa Clara, Calif.). An Ascentis® Express C18 10 cm×3 mm with 2.7 μm particle size column (Sigma-Aldrich St. Louis, Mo.) was employed for separation of ATZ, RTV, and LED. […] For ATZ and LED, the mobile phase was aqueous TFA 0.1% v/v:acetonitrile (ACN) 6:4 v/v at a flow rate of 0.5 ml/min, injection volume 10 detection wavelength (X.) 210 nm, and column temperature 40° C. For RTV, the mobile phase was aqueous TFA 0.1% v/v:ACN 6:4 v/v, flow rate 0.5 ml/min, injection volume 10 detection λ 241 nm and column temperature 40° C.
The surface normalized dissolution rate (R) was calculated based on the mg released versus time profile. The slope from cumulative mg release vs time represents the release rate (k). To normalize, k was divided by the tablet surface area (S, 0.5 cm^2) times the fraction of the component (x) (Equation 1)

[4] = Dynamic vapor sorption (DVS), isothermal water sorption; type: physicochemical; conditions: for effect of plasticizer on polymer (PVPVA) water sorption: PVPVA containing GTB or TBC
Protocol: The isothermal water sorption at 37° C. was measured for selected ASDs using a DVS-Advantage device (Surface Measurement System Ltd Allentown, Pa.). Around 5 mg of sample was first dried at 0% relative humidity (RH) and 37° C. for one hour followed by exposure to 95% RH and 37° C. for at least 8 hours. Percent of water sorbed and derivative of percent mass over time (dm/dT %) was analyzed.

[5] = Glass transition temperature (Tg) by DSC; type: physicochemical; conditions: for Tg of the API: neat API (dry Tg); for reduction of ASD Tg on increasing plasticizer from 5 to 10% w/w: LED 10% DL
Protocol: Glass transition temperature and plasticizer-API miscibility was determined using a TA Q2000 differential scanning calorimeter (DSC) (TA Instruments, New Castle, DE) with a refrigerated cooling accessory (RCS) using N2 as the purge gas at a flow of 50 ml/min. For Tg determination, around 5 mg of sample was accurately weighed into an aluminum pan with a Tzero lid and subject to a cool-heat-cool cycle. Samples were cooled at -20° C. and heated up to 220° C. The heating was done in modulated mode at a heating rate of 2° C/min with a modulation period of +/−1° C. every 60 seconds. The midpoint temperature of the heat capacity change in the thermogram from the second heating cycle scan was taken as the Tg. The DSC was calibrated with indium at the appropriate heating rate.

[6] = 20% DL ATZ ternary ASD, 5% w/w plasticizer, 95% RH/37° C.

COC(=O)N[C@H](C(=O)N[C@@H](Cc1ccccc1)[C@@H](O)CN(Cc1ccc(-c2ccccn2)cc1)NC(=O)[C@@H](NC(=O)OC)C(C)(C)C)C(C)(C)C [ATZ, atazanavir]
Tg ([1]; ATZ:plasticizer 8:1 amorphous mix): 105.5 °C | limit of congruency (LoC) of PVPVA-based ASD, reported [2]: ~5 % DL

CC(=O)OCC(CO)OC(C)=O (stereo not shown) [GDA, glycerol diacetate]
limit of congruency (LoC) of ATZ-PVPVA ASDs [3]: 7.5 % DL

CC(=O)OCC(COC(C)=O)OC(C)=O [GTA, Glycerol triacetate]
limit of congruency (LoC) of ATZ-PVPVA ASDs [3]: 10 % DL | normalized release rate of drug and polymer versus neat PVPVA ([3]; 5% w/w plasticizer): faster than that of neat PVPVA

CCCC(=O)OCC(COC(=O)CCC)OC(=O)CCC [GTB, Glycerol tributyrate]
release from RTV-PVPVA ASD ([3]; 30% DL, 5% w/w plasticizer): Complete release | release from RTV-PVPVA ASD ([3]; 35% DL, 5% w/w plasticizer): not at 35% DL | limit of congruency (LoC) of ATZ-PVPVA ASDs [3]: 25 % DL | limit of congruency (LoC) of LED-PVPVA ASDs [3]: 20 % DL | increase in LoC of ATZ versus binary ASD ([3]; 5% w/w plasticizer): 5 fold | normalized release rate of drug and polymer versus neat PVPVA ([3]; 5% w/w plasticizer): faster than that of neat PVPVA | release of LED ([3]; 10% w/w plasticizer): complete drug release | increase in LoC of LED versus binary ASD ([3]; 10% w/w plasticizer): 4 fold | dissolution rate of PVPVA containing plasticizer versus neat PVPVA [3]: as much as twice; also recorded: faster dissolution rate | water uptake versus binary 20% DL ATZ ASD [4, 6]: more prominent increase of water uptake | effect of plasticizer on polymer (PVPVA) water sorption [4]: dramatically reduced

COC(=O)N[C@H](C(=O)N1CC2(CC2)C[C@H]1c1nc(-c2ccc3c(c2)C(F)(F)c2cc(-c4ccc5[nH]c([C@@H]6[C@H]7CC[C@H](C7)N6C(=O)[C@@H](NC(=O)OC)C(C)C)nc5c4)ccc2-3)c[nH]1)C(C)C [LED, ledipasvir]
Tg ([1]; LED:plasticizer 8:1 amorphous mix): 162 °C | Tg of the API [5]: 160 °C | limit of congruency (LoC) of PVPVA-based ASD, reported [2]: ~5 % DL

CC(C)c1nc(CN(C)C(=O)N[C@H](C(=O)N[C@@H](Cc2ccccc2)C[C@H](O)[C@H](Cc2ccccc2)NC(=O)OCc2cncs2)C(C)C)cs1 [RTV, ritonavir, reference compound]
increase in LoC of RTV versus binary ASD ([3]; RTV-PVPVA ASD with plasticizers GTB and TBC): 1.2 fold | Tg of the API [5]: 50 °C | limit of congruency (LoC) of PVPVA-based ASD, reported [2]: 25 % DL

CCCCOC(=O)CC(CC(=O)OCCCC)(OC(C)=O)C(=O)OCCCC [TBAC, Tributyl-o-acetylcitrate]
limit of congruency (LoC) of ATZ-PVPVA ASDs [3]: 25 % DL | lag time in the release profile ([3]; 5% w/w plasticizer): around 20 min

CCCCOC(=O)CC(O)(CC(=O)OCCCC)C(=O)OCCCC [TBC, Tri-n-butyl citrate]
release from RTV-PVPVA ASD ([3]; 30% DL, 5% w/w plasticizer): Complete release | release from RTV-PVPVA ASD ([3]; 35% DL, 5% w/w plasticizer): not at 35% DL | limit of congruency (LoC) of ATZ-PVPVA ASDs [3]: 25 % DL | limit of congruency (LoC) of LED-PVPVA ASDs [3]: 15 % DL | increase in LoC of ATZ versus binary ASD ([3]; 5% w/w plasticizer): 5 fold | release of LED ([3]; 10% w/w plasticizer): complete drug release | increase in LoC of LED versus binary ASD ([3]; 10% w/w plasticizer): 3 fold | dissolution rate of PVPVA containing plasticizer versus neat PVPVA [3]: as much as twice; also recorded: faster dissolution rate | water uptake versus binary 20% DL ATZ ASD [4, 6]: slight increase in water uptake | water uptake at 10, 20 and 30% DL ([4]; ATZ ternary ASD containing 5% w/w TBC): similar | effect of plasticizer on polymer (PVPVA) water sorption [4]: dramatically reduced

CCOC(=O)CC(CC(=O)OCC)(OC(C)=O)C(=O)OCC [TEAC, triethyl acetyl citrate]
limit of congruency (LoC) of ATZ-PVPVA ASDs [3]: 25 % DL | limit of congruency (LoC) of LED-PVPVA ASDs [3]: 15 % DL | lag time in the release profile ([3]; 5% w/w plasticizer): around 20 min | total release of LED ([3]; 5% w/w plasticizer): 20% | release of LED ([3]; 10% w/w plasticizer): complete drug release | water uptake versus binary 20% DL ATZ ASD [4]: slight increase in water uptake | reduction of ASD Tg on increasing plasticizer from 5 to 10% w/w [5]: 14 °C

CCOC(=O)CC(O)(CC(=O)OCC)C(=O)OCC [TEC, triethyl citrate]
limit of congruency (LoC) of ATZ-PVPVA ASDs [3]: 20 % DL | lag time in the release profile ([3]; 5% w/w plasticizer): around 20 min | total release of LED ([3]; 5% w/w plasticizer): 12% | water uptake versus binary 20% DL ATZ ASD [4, 6]: very similar water uptake as the binary ASD | reduction of ASD Tg on increasing plasticizer from 5 to 10% w/w [5]: 10 °C

O=C(O)CC(O)(CC(=O)O)C(=O)O [citric acid]
limit of congruency (LoC) of ATZ-PVPVA ASDs [3]: 7.5 % DL | release of LED ([3]; 5% w/w plasticizer): complete release

OCC(O)CO [glycerol, Glycerol]
limit of congruency (LoC) of ATZ-PVPVA ASDs [3]: 7.5 % DL | increase in LoC of ATZ versus binary ASD ([3]; 5% w/w plasticizer): 1.5 fold

Clc1ccc(COC(Cn2ccnc2)c2ccc(Cl)cc2Cl)c(Cl)c1 (stereo not shown) [miconazole]
limit of congruency (LoC) of PVPVA-based ASD, reported [2]: 25 % DL
